Data reported in patent US10799503B2, “Methods for the treatment of cancer” (IGNYTA, INC., priority 2016, dated 2020).

Legend:
[1] = Phase I and Phase Ib clinical studies (Example 4): treatment-related adverse events and disposition; type: in vivo, human
Description: Phase I and Phase Ib clinical studies were performed in which 92 total subjects were enrolled, 91 of which were treated, and of which 35 in the Phase Ib portion were determined to be molecularly evaluable and were treated.
Table 4 provides a summary of the most common, treatment-related adverse events (AEs) in all patients that were treated (n=91), expressed as a percentage of the 91 patients.

[2] = Phase I and Phase Ib clinical studies (Example 5, data cut-off Aug. 1, 2017): treatment-related adverse events and disposition; type: in vivo, human
Source text: The most common (>10%) treatment related AEs […].

SMILES: COc1cc2ncnc(Oc3cccc(NC(=O)Nc4cc(C(C)(C)C(F)(F)F)on4)c3)c2cc1OC [N-[3-[(6,7-dimethoxy-4-quinazolinyl)oxy]phenyl]-N′-[5-(2,2,2-trifluoro-1,1-dimethylethyl)-3-isoxazolyl]-urea]
- Discontinued, primary reason Death, number of subjects ([1]; 92 enrolled in Phase 1/1b): 4 n
- Discontinued, primary reason Death, percent of subjects ([1]; 92 enrolled in Phase 1/1b): (4) %
- ALT increase Any Grade, number of patients ([1]; human, in vivo): 6
- ALT increase Any Grade, percentage of patients ([1]; human, in vivo): (7) %
- ALT increase Grade ≤ 2, number of patients ([1]; human, in vivo): 1
- ALT increase Grade ≤ 2, percentage of patients ([1]; human, in vivo): (1) %
- ALT increase Grade ≥ 3, number of patients ([1]; human, in vivo): 5
- ALT increase Grade ≥ 3, percentage of patients ([1]; human, in vivo): (6) %
- AST increase Any Grade, number of patients ([1]; human, in vivo): 6
- AST increase Any Grade, percentage of patients ([1]; human, in vivo): (7) %
- AST increase Grade ≤ 2, percentage of patients ([1]; human, in vivo): (3) %
- AST increase Grade ≥ 3, number of patients ([1]; human, in vivo): 3
- AST increase Grade ≥ 3, percentage of patients ([1]; human, in vivo): (3) %
- Anemia Any Grade, number of patients ([1]; human, in vivo): 6
- Anemia Any Grade, percentage of patients ([1]; human, in vivo): (7) %
- Anemia Grade ≤ 2, number of patients ([1]; human, in vivo): 5
- Anemia Grade ≤ 2, percentage of patients ([1]; human, in vivo): (6) %
- Anemia Grade ≥ 3, number of patients ([1]; human, in vivo): 1
- Anemia Grade ≥ 3, percentage of patients ([1]; human, in vivo): (1) %
- Decreased Appetite Any Grade, number of patients ([1]; human, in vivo): 9
- Decreased Appetite Any Grade, percentage of patients ([1]; human, in vivo): (10) %
- Decreased Appetite Grade ≤ 2, number of patients ([1]; human, in vivo): 9
- Decreased Appetite Grade ≤ 2, percentage of patients ([1]; human, in vivo): (10) %
- Decreased Appetite Grade ≥ 3, number of patients ([1]; human, in vivo): 0
- Diarrhea Any Grade, number of patients ([1]; human, in vivo): 18
- Diarrhea Any Grade, percentage of patients ([1]; human, in vivo): (20) %
- Diarrhea Grade ≤ 2, number of patients ([1]; human, in vivo): 14
- Diarrhea Grade ≤ 2, percentage of patients ([1]; human, in vivo): (15) %
- Diarrhea Grade ≥ 3, number of patients ([1]; human, in vivo): 4
- Diarrhea Grade ≥ 3, percentage of patients ([1]; human, in vivo): (4) %
- Discontinued, primary reason Adverse Event, number of subjects ([1]; human, in vivo): 11 n
- Discontinued, primary reason Adverse Event, percent of subjects ([1]; human, in vivo): (12) %
- Dysgeusia Any Grade, number of patients ([1]; human, in vivo): 5
- Dysgeusia Any Grade, percentage of patients ([1]; human, in vivo): (6) %
- Dysgeusia Grade ≤ 2, number of patients ([1]; human, in vivo): 5
- Dysgeusia Grade ≤ 2, percentage of patients ([1]; human, in vivo): (6) %
- Dysgeusia Grade ≥ 3, number of patients ([1]; human, in vivo): 0
- Erythema Any Grade, number of patients ([1]; human, in vivo): 7
- Erythema Any Grade, percentage of patients ([1]; human, in vivo): (8) %
- Erythema Grade ≤ 2, number of patients ([1]; human, in vivo): 7
- Erythema Grade ≤ 2, percentage of patients ([1]; human, in vivo): (8) %
- Erythema Grade ≥ 3, number of patients ([1]; human, in vivo): 0
- Fatigue Any Grade, number of patients ([1]; human, in vivo): 20
- Fatigue Any Grade, percentage of patients ([1]; human, in vivo): (22) %
- Fatigue Grade ≤ 2, number of patients ([1]; human, in vivo): 16
- Fatigue Grade ≤ 2, percentage of patients ([1]; human, in vivo): (18) %
- Fatigue Grade ≥ 3, number of patients ([1]; human, in vivo): 4
- Fatigue Grade ≥ 3, percentage of patients ([1]; human, in vivo): (4) %
- Hypokalemia Any Grade, number of patients ([1]; human, in vivo): 6
- Hypokalemia Any Grade, percentage of patients ([1]; human, in vivo): (7) %
- Hypokalemia Grade ≤ 2, number of patients ([1]; human, in vivo): 6
- Hypokalemia Grade ≤ 2, percentage of patients ([1]; human, in vivo): (7) %
- Hypokalemia Grade ≥ 3, number of patients ([1]; human, in vivo): 0
- Hypophosphatemia Any Grade, number of patients ([1]; human, in vivo): 13
- Hypophosphatemia Any Grade, percentage of patients ([1]; human, in vivo): (14) %
- Hypophosphatemia Grade ≤ 2, number of patients ([1]; human, in vivo): 7
- Hypophosphatemia Grade ≤ 2, percentage of patients ([1]; human, in vivo): (8) %
- Hypophosphatemia Grade ≥ 3, number of patients ([1]; human, in vivo): 6
- Hypophosphatemia Grade ≥ 3, percentage of patients ([1]; human, in vivo): (7) %
- Muscle Spasms Any Grade, number of patients ([1]; human, in vivo): 12
- Muscle Spasms Any Grade, percentage of patients ([1]; human, in vivo): (13) %
- Muscle Spasms Grade ≤ 2, number of patients ([1]; human, in vivo): 12
- Muscle Spasms Grade ≤ 2, percentage of patients ([1]; human, in vivo): (13) %
- Muscle Spasms Grade ≥ 3, number of patients ([1]; human, in vivo): 0
- Nausea Any Grade, number of patients ([1]; human, in vivo): 16
- Nausea Any Grade, percentage of patients ([1]; human, in vivo): (18) %
- Nausea Grade ≤ 2, number of patients ([1]; human, in vivo): 16
- Nausea Grade ≤ 2, percentage of patients ([1]; human, in vivo): (18) %
- Nausea Grade ≥ 3, number of patients ([1]; human, in vivo): 0
- Rash* Any Grade, number of patients ([1]; human, in vivo): 28
- Rash* Any Grade, percentage of patients ([1]; human, in vivo): (31) %
- Rash* Grade ≤ 2, number of patients ([1]; human, in vivo): 20
- Rash* Grade ≤ 2, percentage of patients ([1]; human, in vivo): (22) %
- Rash* Grade ≥ 3, number of patients ([1]; human, in vivo): 8
- Rash* Grade ≥ 3, percentage of patients ([1]; human, in vivo): (9) %
- Vomiting Any Grade, number of patients ([1]; human, in vivo): 13
- Vomiting Any Grade, percentage of patients ([1]; human, in vivo): (14) %
- Vomiting Grade ≤ 2, number of patients ([1]; human, in vivo): 13
- Vomiting Grade ≤ 2, percentage of patients ([1]; human, in vivo): (14) %
- Vomiting Grade ≥ 3, number of patients ([1]; human, in vivo): 0
- Number of patients that discontinued due to death ([2]; Phase 1 (N = 55)): 3 n
- Number of patients that discontinued due to death ([2]; Phase 1b Other (N = 50)): 1 n
- Number of patients that discontinued due to death ([2]; Phase 1b RET+ (N = 47)): 0 n
- Number of patients that discontinued due to death ([2]; Total Subjects (N = 152)): 4 n
- Blood Bilirubin Increased ≤G2 ([2]; human, in vivo): 6 (4)
- Blood Bilirubin Increased ≥G3 ([2]; human, in vivo): 1 (1)
- Decreased Appetite ≤G2 ([2]; human, in vivo): 17 (11)
- Decreased Appetite ≥G3 ([2]; human, in vivo): 0 (0)
- Diarrhea ≤G2 ([2]; human, in vivo): 28 (18)
- Diarrhea ≥G3 ([2]; human, in vivo): 6 (4)
- Elevated Alanine Aminotransferase ≤G2 ([2]; human, in vivo): 4 (3)
- Elevated Alanine Aminotransferase ≥G3 ([2]; human, in vivo): 11 (7)
- Elevated Aspartate Aminotransferase ≤G2 ([2]; human, in vivo): 9 (6)
- Elevated Aspartate Aminotransferase ≥G3 ([2]; human, in vivo): 6 (4)
- Fatigue ≤G2 ([2]; human, in vivo): 27 (18)
- Fatigue ≥G3 ([2]; human, in vivo): 5 (3)
- Hypophosphatemia ≤G2 ([2]; human, in vivo): 13 (9)
- Hypophosphatemia ≥G3 ([2]; human, in vivo): 11 (7)
- Muscle Spasms ≤G2 ([2]; human, in vivo): 19 (13)
- Muscle Spasms ≥G3 ([2]; human, in vivo): 0 (0)
- Nausea ≤G2 ([2]; human, in vivo): 21 (14)
- Nausea ≥G3 ([2]; human, in vivo): 0 (0)
- Rash* ≤G2 ([2]; human, in vivo): 37 (24)
- Rash* ≥G3 ([2]; human, in vivo): 15 (10)
- Vomiting ≤G2 ([2]; human, in vivo): 15 (10)
- Vomiting ≥G3 ([2]; human, in vivo): 0 (0)
- number of treatment-related serious adverse events (SAEs) ([2]; human, in vivo): 19
- patients who experienced treatment-related serious adverse events (SAEs) ([2]; human, in vivo): 9%
- resolution of treatment-related serious adverse events ([2]; human, in vivo): all except 1 resolved by dose modification or discontinuation
- safety profile ([2]; human, in vivo): manageable safety profile
- severity and reversibility of the majority of treatment-related adverse events ([2]; human, in vivo): <Grade 2 and were reversible with dose modifications
- toxicities commonly associated with VEGFR inhibition (hypertension, hypothyroidism, proteinuria, neurotoxicity) ([2]; human, in vivo): rarely observed
